The source of these data is paper PMC3084839, “Origin of Secretin Receptor Precedes the Advent of Tetrapoda: Evidence on the Separated Origins of Secretin and Orexin” (PLoS ONE, 2011).

Ends that are not written are not given here.

The term EC50 denotes the midpoint of the concentration-response curve.

For assay [1], the system named is R. rugulosa pancreatic ductal cells. Nature of the assay: cAMP production in primary culture of R. rugulosa pancreatic ductal cells. In kind it is cell-based, Rana rugulosa. The conditions noted are these: positive control. How it is done:
Adult male R. rugulosa was sacrificed by cervical decapitation. The freshly excised pancreas was removed and washed in Ringer solution (in mM, 85 NaCl, 4 KCl, 17.5 NaHCO3, 0.8 KH2PO4, 2 glucose, 1.5 CaCl2 and 0.8 MgCl2, pH 7.6). The excised pancreas was then minced into approximately 1 mm^3 pieces and digested at room temperature for 1 hr in the dissociation medium (Ringer solution supplemented with 0.2 mg/ml soy beans trypsin inhibitor (Sigma), 2 mg/ml BSA (Roche), 400 U/ml hyaluronidase (Sigma) and 50 U/ml collagenase (Sigma)). The tissue suspension was then washed with Ringer solution and small clusters of dissociated cells were filtered with the use of a 100-µm cell strainer (BD Falcon, US). Filtrate containing the undigested tissue, including the pancreatic ducts, was maintained in culture medium (80% Leibovitz's L-15 medium (Invitrogen) supplemented with 10% FBS and 100 U/ml Penicillin/[…] Streptomycin) in a humidified incubator at 24°C. […] The isolated pancreatic ductal cells were then used for cAMP stimulation in the presence of xSCT peptides and forskolin.
In general terms: cAMP levels reflect the balance of adenylyl cyclase and phosphodiesterase activity.

Assay [2] has as its target T1, lfSCTR (P. dolloi secretin receptor) (Protopterus dolloi, UniProt F8RUA8).
T1 sequence (F8RUA8 1-463): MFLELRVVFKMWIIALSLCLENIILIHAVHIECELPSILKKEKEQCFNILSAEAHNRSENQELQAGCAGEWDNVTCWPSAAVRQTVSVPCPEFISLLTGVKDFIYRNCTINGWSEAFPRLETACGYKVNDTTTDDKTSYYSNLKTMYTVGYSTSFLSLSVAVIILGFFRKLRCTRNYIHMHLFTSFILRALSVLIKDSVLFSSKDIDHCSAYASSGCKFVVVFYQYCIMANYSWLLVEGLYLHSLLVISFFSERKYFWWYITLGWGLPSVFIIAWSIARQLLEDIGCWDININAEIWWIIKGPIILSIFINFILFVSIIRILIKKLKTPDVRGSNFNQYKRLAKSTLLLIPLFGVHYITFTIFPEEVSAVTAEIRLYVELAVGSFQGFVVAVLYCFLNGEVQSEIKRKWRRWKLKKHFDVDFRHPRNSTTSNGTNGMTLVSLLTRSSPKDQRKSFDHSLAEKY
Nature of the assay: Intracellular calcium mobilization in lfSCTR-transfected CHO cells. It counts as cell-based. The conditions noted are these: lfSCTR-transfected CHO cells preloaded with Fluo-3; confocal imaging; at least 10 independent experiments; read-out: [Ca2+]i EC50, lfSCTR. The protocol:
(§1) For confocal calcium imaging, transiently transfected cells were plated at a density of 3000 cells/well in 24-well plates (Sigma-Aldrich, St. Louis, MO). After overnight incubation, cells were pre-loaded with 5 µM Fluo-3 acetoxymethyl ester (AM) (Sigma) for 45 min at 37°C in Tyrode solution consisting of (mM): 140 NaCl, 5 KCl, 1 MgCl2, 1 CaCl2, 10 glucose and 10 HEPES at pH 7.4. Calcium transient of single receptor-transfected CHO cell was recorded with a confocal imaging system (Olympus Fluoview System version 4.2 FV300 TIEMPO) mounted on an upright Olympus microscope (IX71). Peptides at concentrations ranging from 10^−5 to 10^−12 M were added at designated time point and calcium level was traced in a real-time manner using the Fluoview software (Olympus). […] For both assays, ionomycin (10 µM) was added at the end of each experiment to test the vitality of the cells.
(§2) Differences were considered significant when P<0.05.

Assay [3] concerns the target T1, lfSCTR (P. dolloi secretin receptor). Briefly: Intracellular cAMP production in lfSCTR-transfected CHO cells. The conditions noted are these: for [cAMP]i stimulation of lfSCTR at 100 nM: 100 nM peptide, lfSCTR-transfected CHO-K1 cells, P<0.001; for EC50: CHO cells transiently transfected with lfSCTR, graded peptide concentrations, LANCE cAMP assay, mean ± SEM, n = 4, read-out: [cAMP]i EC50, lfSCTR. It counts as cell-based.
Excerpt: as §2

Assay [4] addresses T2, xOX2R (Xenopus orexin type-2 receptor) (Xenopus laevis, UniProt F8RUB9).
T2 sequence (F8RUB9 1-440): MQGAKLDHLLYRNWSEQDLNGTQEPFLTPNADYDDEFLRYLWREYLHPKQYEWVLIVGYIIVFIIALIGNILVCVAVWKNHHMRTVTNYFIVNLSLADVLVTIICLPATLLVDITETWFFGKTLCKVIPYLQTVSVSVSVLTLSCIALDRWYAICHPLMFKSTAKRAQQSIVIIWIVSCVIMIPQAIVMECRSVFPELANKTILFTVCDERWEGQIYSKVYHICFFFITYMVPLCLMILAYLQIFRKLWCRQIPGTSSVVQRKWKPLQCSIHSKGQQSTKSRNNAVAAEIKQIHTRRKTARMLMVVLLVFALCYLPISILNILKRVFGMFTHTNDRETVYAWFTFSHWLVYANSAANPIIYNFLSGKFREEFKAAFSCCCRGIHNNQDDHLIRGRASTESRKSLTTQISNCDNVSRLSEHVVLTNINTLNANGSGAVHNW
Nature of the assay: Intracellular calcium mobilization in xOX2R-CHO cells. In kind it is cell-based. The following applies: data not shown. How it is done: as §1, §2
A general note: A change in cytosolic calcium serves as a functional read-out for many receptors and channels.

The test system of assay [5] is orexin receptor. The following applies: rat anterior hypothalamus and orexin receptor-transfected cells; cited from earlier work. The text has this: (§3) Orexins A and B [17] or hypocretins 1 and 2 [18] are peptides isolated from the rat hypothalamus in 1998 by two independent research groups. Both peptides are derived from the same precursor protein and are produced by differential proteolytic cleavage. Because the C-terminal portions of both orexin peptides resemble the N-terminal of secretin, orexins were proposed to have originated from secretin or the related peptides in the secretin/glucagon superfamily, [19]. This hypothesis was then examined by studying the bindings of these peptides with their receptors in mammals and conf ...

Assay [6] relates to human orexin type-2 receptor. The following applies: human orexin type-2 receptor-transfected CHO cells; cited from earlier work.
Excerpt: as §3

Assay [7] relates to human orexin receptors. The conditions noted are these: cited from earlier work.
Excerpt: as §3

[8] abbreviates: lfSCTR-CHO cells, micro-molar concentrations (10^-5 and 10^-6 M).

`C=C[C@@]1(C)CC(=O)[C@]2(O)[C@@]3(C)[C@@H](O)CCC(C)(C)[C@@H]3[C@H](O)[C@H](OC(C)=O)[C@@]2(C)O1` [Forskolin]: the “increase in cAMP level compared with the basal” value in assay [1] is 20 fold.
Regarding `CC[C@H](C)[C@H](NC(=O)CNC(=O)[C@H](CC(=O)O)NC(=O)[C@H](CO)NC(=O)[C@@H](N)Cc1c[nH]cn1)C(=O)N[C@@H](Cc1ccccc1)C(=O)N[C@H](C(=O)N[C@@H](CC(=O)O)C(=O)N[C@@H](CO)C(=O)N[C@@H](Cc1ccc(O)cc1)C(=O)N[C@@H](CO)C(=O)N[C@@H](CCCNC(=N)N)C(=O)N[C@@H](Cc1ccc(O)cc1)C(=O)N[C@@H](CCCNC(=N)N)C(=O)N[C@@H](CCCCN)C(=O)N[C@@H](CCC(N)=O)C(=O)N[C@@H](CCSC)C(=O)N[C@@H](C)C(=O)N[C@H](C(=O)N[C@@H](CCCCN)C(=O)N[C@@H](CCCCN)C(=O)N[C@@H](Cc1ccc(O)cc1)C(=O)N[C@@H](CC(C)C)C(=O)N[C@@H](C)C(=O)N[C@@H](C)C(=O)N[C@H](C(=O)N[C@@H](CC(C)C)C(N)=O)C(C)C)C(C)C)[C@@H](C)O` [hPACAP27], in assay [2], the half-maximal effective concentration (EC50) was determined as 25.6 nM. In addition, in assay [3], the “[cAMP]i stimulation of lfSCTR at 100 nM” value was “significantly stimulate” and the EC50 was determined as 410 nM.
Turning to `CC(C)C[C@H](NC(=O)CNC(=O)[C@H](CCC(N)=O)NC(=O)[C@H](CC(C)C)NC(=O)[C@H](CC(C)C)NC(=O)[C@H](CCCNC(=N)N)NC(=O)[C@H](CCC(N)=O)NC(=O)[C@H](CC(C)C)NC(=O)[C@H](CCCNC(=N)N)NC(=O)[C@H](C)NC(=O)CNC(=O)[C@H](CCC(=O)O)NC(=O)[C@H](CCCNC(=N)N)NC(=O)[C@H](CC(C)C)NC(=O)[C@H](CCCNC(=N)N)NC(=O)[C@H](CO)NC(=O)[C@H](CC(C)C)NC(=O)[C@H](CCC(=O)O)NC(=O)[C@H](CO)NC(=O)[C@@H](NC(=O)[C@H](Cc1ccccc1)NC(=O)[C@@H](NC(=O)CNC(=O)[C@H](CC(=O)O)NC(=O)[C@H](CO)NC(=O)[C@@H](N)Cc1c[nH]cn1)[C@@H](C)O)[C@@H](C)O)C(=O)N[C@H](C(N)=O)C(C)C` [hSCT], the EC50 in assay [2] came out at 14.7 nM. Moreover, in assay [3], the “[cAMP]i stimulation of lfSCTR at 100 nM” value is listed as “significantly stimulate” and the 50% effective concentration (EC50) is 790 nM. In addition, in assay [3] (setting [8]), the “efficacy of hSCT relative to hPACAP27 in triggering [cAMP]i” value is reported as 5.0 fold and the “efficacy of hSCT relative to hVIP in triggering [cAMP]i” value is on record as 3.6 fold.
As to `CC[C@H](C)[C@H](NC(=O)[C@H](CO)NC(=O)[C@H](CC(N)=O)NC(=O)[C@H](CC(C)C)NC(=O)[C@H](Cc1ccc(O)cc1)NC(=O)[C@H](CCCCN)NC(=O)[C@H](CCCCN)NC(=O)[C@@H](NC(=O)[C@H](C)NC(=O)[C@H](CCSC)NC(=O)[C@H](CCC(N)=O)NC(=O)[C@H](CCCCN)NC(=O)[C@H](CCCNC(=N)N)NC(=O)[C@H](CC(C)C)NC(=O)[C@H](CCCNC(=N)N)NC(=O)[C@@H](NC(=O)[C@H](Cc1ccc(O)cc1)NC(=O)[C@H](CC(N)=O)NC(=O)[C@H](CC(=O)O)NC(=O)[C@@H](NC(=O)[C@H](Cc1ccccc1)NC(=O)[C@@H](NC(=O)[C@H](C)NC(=O)[C@H](CC(=O)O)NC(=O)[C@H](CO)NC(=O)[C@@H](N)Cc1c[nH]cn1)C(C)C)[C@@H](C)O)[C@@H](C)O)C(C)C)C(=O)N[C@@H](CC(C)C)C(=O)N[C@@H](CC(N)=O)C(N)=O` [hVIP], in assay [2], the half-maximal effective concentration (EC50) was 10.3 nM. For the same molecule, in assay [3], the “[cAMP]i stimulation of lfSCTR at 100 nM” value is reported as “significantly stimulate” and the EC50 is 160 nM.
On to “Human orexin A: human orexin A peptide (QPLPDCCRQKTCSCRLYELLHGAGNHAAGILTL; ends and bridges not checked; cysteine pairing not given here; UniProt O43612 34-66, looked up)”, for which the “[Ca2+]i response, xOX2R” value in assay [4] is “able to induce calcium elevations”.
In the case of Human orexin B: human orexin B peptide, the “[Ca2+]i response, xOX2R” value in assay [4] is “able to induce calcium elevations”.
Regarding “Porcine SCT: porcine secretin, literature result (HSDGTFTSELSRLRDSARLQRLLQGLV; ends and bridges not checked; UniProt P63298 33-59, looked up)”, the “displacement of [125I] orexin A binding” value in assay [5] is “found to displace”.
For “SCT: secretin, species not stated, in cited human orexin receptor studies”, in assay [6], the calcium elevation result is recorded as “unable” and the “displacement of [125I] orexin A” value was “unable to displace”. Besides, in assay [7], the “agonistic or antagonistic effects” value is “neither agonistic nor antagonistic effects”.

B1: xSCT: 28-amino acid X. laevis secretin peptide cloned in this study, synthesized by one of the authors (protein)
chain: SSLPARSKRHVDGRFTSEFSRARGSAAIRKIINSALAGKRDIEENYQIDVPDVDNQREILKELAYNSLPELRSEEKQLTEQKAAEDLLCSAILNMLYRAPYQPLPAQSAQDYQGKNSSVEEVKHI
For the molecule B1, the values for the 50% effective concentration (EC50) in assay [2] and in assay [3] were 273 nM and 1820 nM, respectively.
